Measurements taken from PMC10518255, “A first-in-class pan-lysyl oxidase inhibitor impairs stromal remodeling and enhances gemcitabine response and survival in pancreatic cancer” (Nature Cancer, 2023).
Values joined by “and” are separate entries in the source; they are usually repeats but may differ in a detail not shown here. Identical values can stand only once.

Experiments:
[1] = system: Lysyl oxidase family activity in aorta; assay: Lysyl oxidase family activity in aorta of KPC tumor bearing mice at end point, fluorometric activity assay; format: in vivo, mouse; conditions: for Lysyl oxidase family activity measured in the aorta of KPC tumour bearing mice at endpoint (signal over noise): Extended Data 5A, fluorometric activity assay, noise measured with 300 µM ßAPN, individual animals
Experimental: KPC mice were treated from the time at which palpable tumors were detected (typically 10 to 12 weeks of age) and continued until the study end point. Mice were treated daily with PXS-5505 (20 mg kg^−1 i.p.) or vehicle (0.9% saline) and twice weekly with gemcitabine (100 mg kg^−1 i.p.) or vehicle (0.9% saline).
Extended Data Fig. 5 PXS-5505 in combination with gemcitabine in vivo. a. […] Signal is defined as the enzyme activity in the aorta, while noise is measured in the presence of a high concentration (300 µM) BAPN to abolish any lysyl oxidase family activity. […] Data presented as mean values +/− SD b. […] Data presented as mean values +/− SD. c. FITC-dextran (molecular weight: 10 kDa) signal quantification from KPC tumor end point from each treatment group (vehicle n = 3 biologically independent animals, PXS-5505 n = 5 biologically independent animals, Gem n = 5 biologically independent animals, PXS-5505 + Gem n = 5 biologically independent animals). 4 ROIs taken per mouse. P-values determined by Welchs t-test. Data presented as mean values +/− SD. Scale bars = 100 μm d. Quantification of red birefringent (mature) collagen fibers from human PDXs at end point after 3 cycles of treatment, treated as indicated. […] Data presented as mean values +/− SD. Scale bars = 100 μm e. Quantification of bulk modulus (stiffness) by unconfined compression testing of end point human PDX tumors from each treatment group (vehicle n = 5 biologically independent animals, Gem n = 5 biologically independent animals, PXS-5505 n = 5 biologically independent animals, PXS-5505 + Gem n = 5 biologically independent animals) [individual tumors shown]). […] FITC-dextran (molecular weight 10 kDa) signal quantification from human PDXs from each treatment group (vehicle n = 4 biologically independent animals, PXS-5505 n = 5 biologically independent animals, Gem n = 5 biologically independent animals, PXS-5505 + Gem n = 5 biologically independent animals). […] P values determined by Welchs t-test. g. […] Quantification of green birefringent (nascent) collagen fibers from human PDXs at end point, treated as indicated. […]

APMA human PDX tumors = assay: APMA human PDX model, picrosirius red birefringence (Extended Data Fig. 5i); format: in vivo, mouse; conditions: for Quantification of green birefringent (nascent) collagen fibres: Extended Data 5I, human PDXs at endpoint, individual animals
Experimental: Subcutaneous PDX studies were performed by implanting early passage PDX pieces (~4 mm^3) or TKCC10 CCs (1.5 × 10^6 cells per mouse in 100 μl PBS/Matrigel 1:1) into female (PDX) or male (TKCC10) 8-week-old immunocompromised nude Balb/c-Fox1nuAusb mice subcutaneously on the left flank. For the duration of the study, mice were kept in conventional caging with environmental enrichment, access to standard chow, water ad libitum and 12-h light–dark cycle at ambient temperature and humidity. Treatment began when tumors reached 150 mm^3, where each mouse was randomized into a treatment group and administered gemcitabine HCl (100 mg kg^−1 in saline) (Jomar Life Research) or vehicle control (0.9% saline) by i.p. injection twice weekly on day 2 and 4 of the treatment cycle until an ethical end point was reached. These included maximal tumor mass ≥10% of body weight, weight loss ≥20% from maximum body weight or tumor interfering with mobility and affecting access to food and water. Animals with non-tumor-related complications that led to a premature end point were censored. […] Tumor size was monitored every second day by calipers. Tumor volume was calculated using the formula (length × width^2)/2. […]
For assessment of picrosirius red staining in KPC and APMA patient tumors, five representative regions of interest per section were analyzed for both brightfield and polarized light by a blinded reviewer using in-house automated analysis scripts as described previously[28],[34],[58] […]
Extended Data Fig. 5 PXS-5505 in combination with gemcitabine in vivo. a. […] Signal is defined as the enzyme activity in the aorta, while noise is measured in the presence of a high concentration (300 µM) BAPN to abolish any lysyl oxidase family activity. […] FITC-dextran (molecular weight: 10 kDa) signal quantification from KPC tumor end point from each treatment group (vehicle n = 3 biologically independent animals, PXS-5505 n = 5 biologically independent animals, Gem n = 5 biologically independent animals, PXS-5505 + Gem n = 5 biologically independent animals). […] P-values determined by Welchs t-test. […]

Row | Structure (SMILES) | Lysyl oxidase family activity measured in the aorta of KPC tumour bearing mice at endpoint (signal over noise) [1] | lysyl oxidase family activity in the aorta at end point ([1]; KPC tumor bearing mice) | Quantification of green birefringent (nascent) collagen fibres (APMA human PDX tumors) | deposition of collagen I (picrosirius red birefringence) (APMA human PDX tumors; APMA human PDX, three rounds of treatment)
1 | Cl.Cl.NC/C=C(\F)CS(=O)(=O)c1cccc2cccnc12.O [PXS-5505, (Z)-3-fluoro-4-(quinolin-8-ylsulfonyl)but-2-en-1-amine dihydrochloride monohydrate] | 1.144 and 1.3025 and 1.519 and 1.787 and 1.62 and 1.558 | confirming lysyl oxidase family inhibition | 61.6667 and 1138 and 246 and 184 and 80.3333 and 99.6667 and 1125.33 and 424.667 and 169.333 and 108 | 
2 | Nc1ccn([C@@H]2O[C@H](CO)[C@@H](O)C2(F)F)c(=O)n1 [Gem, gemcitabine] | 2.059 and 2.616 and 2.089 and 2.043 and 2.04 and 2.065 and 2.364 |  | 672.333 and 613 and 417.333 and 643.667 and 776 and 904.333 and 1865.67 and 529.667 and 397.667 and 278 | increase in the deposition of collagen I
